Our source for the BJAB and EC50 values is patent US20210278408A1, “METHODS OF TREATMENT OF CANCER WITH SUBSTITUTED PYRROLE AND PYRAZOLE COMPOUNDS AND DIAGNOSIS OF CANCERS SUSCEPTIBLE TO TREATMENT WITH SUBSTITUTED PYRROLE AND PYRAZOLE COMPOUNDS” (Bantam Pharmaceutical, LLC, priority 2018, published 2021).

One test has as its system BJAB (malignant human B-cell-line). In words: BJAB cell proliferation. Also noted: scale not given here. To be noted: BJAB (malignant human B-cell-line) cell proliferation, EC50. Type of test: cell-based. An excerpt: In certain embodiments, the therapeutic compound is one of the compounds of the compound table below. […] In certain embodiments, the therapeutic compound is a compound having an activity as “A,” “B” or “C” in the table below. In certain embodiments, the therapeutic compound is a compound having an activity as “A” or “B” in the table below. In certain embodiments, the therapeutic compound is a compound having an activity as “A” in the table below.
In certain embodiments, the therapeutic compound is one of the compounds of the compound table below, optionally provided as a pharmaceutically-acceptable salt or N-oxide, and/or a solvate or hydrate. […] In certain embodiments, the therapeutic compound is a compound having an activity as “A,” “B” or “C” in the table below. In certain embodiments, the therapeutic compound is a compound having an activity as “A” or “B” in the table below. In certain embodiments, the therapeutic compound is a compound having an activity as “A” in the table below.
For the molecule `Cc1cc(-c2cn(-c3nc(-c4ccc(Cl)c(Cl)c4)c(SC(C)C)s3)nc2C)cc(C)n1` [Compound B9, 4-(3,4-dichlorophenyl)-2-(4-(2,6-dimethylpyridin-4-yl)-3-methyl-1H-pyrazol-1-yl)-5-(isopropylthio)thiazole], the BJAB result is given as “A, C, L”.

The same test, now with this note: BJAB (malignant human B-cell-line) cell proliferation, EC50; read-out: BJAB.
As to `Cc1cc(C(=O)O)n(-c2nc(-c3ccc(Cl)cc3OC3COC3)c(SC(C)C)s2)n1` [Compound B1, 1-(4-(4-chloro-2-(oxetan-3-yloxy)phenyl)-5-(isopropylthio)thiazol-2-yl)-3-methyl-1H-pyrazole-5-carboxylic acid], the EC50 is greater than 40 µM.

As for `Cc1cc(C(=O)O)n(-c2nc(-c3ccc(Cl)c(OC4COC4)c3)c(SC(C)C)s2)n1` [Compound B2, 1-(4-(4-chloro-3-(oxetan-3-yloxy)phenyl)-5-(isopropylthio)thiazol-2-yl)-3-methyl-1H-pyrazole-5-carboxylic acid], the EC50 was greater than 40 µM.

As for `Cc1nnc(-c2ccc(-c3nc(-n4nc(C)c(-c5cccc(F)c5)c4C(=O)O)sc3SC(C)C)cc2)o1` [Compound B3, 4-(3-fluorophenyl)-1-(5-(isopropylthio)-4-(4-(5-methyl-1,3,4-oxadiazol-2-yl)phenyl)thiazol-2-yl)-3-methyl-1H-pyrazole-5-carboxylic acid], the EC50 lay in the range of 25 to 50 µM.

As for `Cc1nn(-c2nc(C3=CCC(C)CC3)c(SC(C)C)s2)c(C(=O)O)c1-c1cccc(F)c1` (stereo not shown) [Compound B4, 4-(3-fluorophenyl)-1-(5-(isopropylthio)-4-(4-methylcyclohex-1-en-1-yl)thiazol-2-yl)-3-methyl-1H-pyrazole-5-carboxylic acid], the EC50 was in the range of 1 to 5 µM.

Turning to `Cc1nn(-c2nc(C3=CCC(C)(C)CC3)c(SC(C)C)s2)c(C(=O)O)c1-c1cccc(F)c1` [Compound B6, 1-(4-(4,4-dimethylcyclohex-1-en-1-yl)-5-(isopropylthio)thiazol-2-yl)-4-(3-fluorophenyl)-3-methyl-1H-pyrazole-5-carboxylic acid], the EC50 was less than 1 µM.

As for `Cc1nn(-c2nc(C3=CCC4(CC3)OCCO4)c(SC(C)C)s2)c(C(=O)O)c1-c1cccc(F)c1` [Compound B7, 4-(3-fluorophenyl)-1-(5-(isopropylthio)-4-(1,4-dioxaspiro[4.5]dec-7-en-8-yl)thiazol-2-yl)-3-methyl-1H-pyrazole-5-carboxylic acid], the EC50 was 25 to 50 µM.

Consider `Cc1nn(-c2nc(-c3ccc(Cl)c(C(=O)N4CCOCC4)c3)c(SC(C)C)s2)c(C(=O)O)c1-c1cccc(F)c1` [Compound B8, 1-(4-(4-chloro-3-(morpholine-4-carbonyl)phenyl)-5-(isopropylthio)thiazol-2-yl)-4-(3-fluorophenyl)-3-methyl-1H-pyrazole-5-carboxylic acid], for which the EC50 is greater than 40 µM.

With `Cc1nn(-c2nc(-c3ccc(C(F)(F)F)cc3)c(SC(C)C)s2)c(C)c1-c1cccc(F)c1` [Compound B10, 2-(4-(3-fluorophenyl)-3,5-dimethyl-1H-pyrazol-1-yl)-5-(isopropylthio)-4-(4-(trifluoromethyl)phenyl)thiazole], the EC50 was greater than 40 µM.

With `Cc1nn(-c2nc(N3CCCCC3)c(SC(C)C)s2)c(C(=O)O)c1-c1cccc(F)c1` [Compound B11, 4-(3-fluorophenyl)-1-(5-(isopropylthio)-4-(piperidin-1-yl)thiazol-2-yl)-3-methyl-1H-pyrazole-5-carboxylic acid], the EC50 was 10 to 25 µM.

Consider `Cc1nn(-c2nc(N3CCC(C(F)(F)F)CC3)c(SC(C)C)s2)c(C(=O)O)c1-c1cccc(F)c1` [Compound B12, 4-(3-fluorophenyl)-1-(5-(isopropylthio)-4-(4-(trifluoromethyl)piperidin-1-yl)thiazol-2-yl)-3-methyl-1H-pyrazole-5-carboxylic acid], for which the EC50 was less than 1 µM.

On to `COc1nn(-c2nc(-c3ccc(C(F)(F)F)cc3)c(SC(C)C)s2)c(C(=O)O)c1-c1cccc(F)c1` [Compound B13, 4-(3-fluorophenyl)-1-(5-(isopropylthio)-4-(4-(trifluoromethyl)phenyl)thiazol-2-yl)-3-methoxy-1H-pyrazole-5-carboxylic acid], for which the EC50 is 1 to 5 µM.

Consider `Cc1nn(-c2nc(N3CCOCC3)c(SC(C)C)s2)c(C(=O)O)c1-c1cccc(F)c1` [Compound B14, 4-(3-fluorophenyl)-1-(5-(isopropylthio)-4-morpholinothiazol-2-yl)-3-methyl-1H-pyrazole-5-carboxylic acid], for which the EC50 was greater than 40 µM.

For the molecule `CC(C)Sc1sc(-n2nc(O)c(-c3cccc(F)c3)c2C(=O)O)nc1-c1ccc(C(F)(F)F)cc1` [Compound B15, 4-(3-fluorophenyl)-3-hydroxy-1-(5-(isopropylthio)-4-(4-(trifluoromethyl)phenyl)thiazol-2-yl)-1H-pyrazole-5-carboxylic acid], the EC50 was greater than 20 µM.

As to `Cc1nn(-c2nc(-c3ccc(Cl)c(Cl)c3)n(CC(C)C)n2)c(C(=O)O)c1-c1cccc(F)c1` [Compound B16, 1-(5-(3,4-dichlorophenyl)-1-isobutyl-1H-1,2,4-triazol-3-yl)-4-(3-fluorophenyl)-3-methyl-1H-pyrazole-5-carboxylic acid], the EC50 is greater than 20 µM.

Take `Cc1nn(-c2nc(-c3ccc(Cl)c(Cl)c3)nn2CC(C)C)c(C(=O)O)c1-c1cccc(F)c1` [Compound B17, 1-(3-(3,4-dichlorophenyl)-1-isobutyl-1H-1,2,4-triazol-5-yl)-4-(3-fluorophenyl)-3-methyl-1H-pyrazole-5-carboxylic acid]: the EC50 was greater than 20 µM.

As to `Cc1nn(-c2nc(N3CCC(F)(F)CC3)c(SC(C)C)s2)c(C(=O)O)c1-c1cccc(F)c1` [Compound B18, 1-(4-(4,4-difluoropiperidin-1-yl)-5-(isopropylthio)thiazol-2-yl)-4-(3-fluorophenyl)-3-methyl-1H-pyrazole-5-carboxylic acid], the EC50 lay within 1 to 5 µM.

Consider `COC(=O)c1c(-c2cccc(F)c2)c(C)nn1-c1nc(C2=CCC(C(F)(F)F)CC2)c(SC(C)C)s1` (stereo not shown) [Compound B20, methyl 4-(3-fluorophenyl)-1-(5-(isopropylthio)-4-(4-(trifluoromethyl)cyclohex-1-en-1-yl)thiazol-2-yl)-3-methyl-1H-pyrazole-5-carboxylate], for which the EC50 is less than 1 µM.

Regarding `Cc1nn(-c2nc(C3CCC(C(F)(F)F)CC3)cs2)c(C(=O)O)c1-c1cccc(F)c1` (stereo not shown) [Compound B21, 4-(3-fluorophenyl)-3-methyl-1-(4-(4-(trifluoromethyl)cyclohexyl)thiazol-2-yl)-1H-pyrazole-5-carboxylic acid], the EC50 is greater than 20 µM.

Consider `Cc1nn(-c2nc(-c3ccc(C(F)(F)F)cc3)c(CC(C)C)s2)c(C(=O)O)c1-c1cccc(F)c1` [Compound B22, 4-(3-fluorophenyl)-1-(5-isobutyl-4-(4-(trifluoromethyl)phenyl)thiazol-2-yl)-3-methyl-1H-pyrazole-5-carboxylic acid], for which the EC50 was less than 1 µM.

Turning to `Cc1nn(-c2nc(N3CCN(CC(F)(F)F)CC3)c(SC(C)C)s2)c(C(=O)O)c1-c1cccc(F)c1` [Compound B23, 4-(3-fluorophenyl)-1-(5-(isopropylthio)-4-(4-(2,2,2-trifluoroethyl)piperazin-1-yl)thiazol-2-yl)-3-methyl-1H-pyrazole-5-carboxylic acid], the EC50 is 5 to 10 µM.

For the molecule `Cc1nn(-c2nc(N3CCC(C#N)CC3)c(SC(C)C)s2)c(C(=O)O)c1-c1cccc(F)c1` [Compound B24, 1-(4-(4-cyanopiperidin-1-yl)-5-(isopropylthio)thiazol-2-yl)-4-(3-fluorophenyl)-3-methyl-1H-pyrazole-5-carboxylic acid], the EC50 fell in the range of 10 to 25 µM.

Staying with this test, now noted: BJAB cell proliferation.
With `Cc1nn(-c2nc(-c3ccc(Cl)c(Cl)c3)c(SC(C)C)s2)c(C(=O)O)c1-c1cccc(F)c1` [Compound A151, 1-(4-(3,4-dichlorophenyl)-5-(isopropylthio)thiazol-2-yl)-4-(3-fluorophenyl)-3-methyl-1H-pyrazole-5-carboxylic acid], the EC50 entry is on record as “A, B”.

On to `Cc1nn(-c2nc(-c3ccc(C#N)cc3)c(SC(C)C)s2)c(C(=O)O)c1-c1cccc(F)c1` [Compound A213, 1-(4-(4-cyanophenyl)-5-(isopropylthio)thiazol-2-yl)-4-(3-fluorophenyl)-3-methyl-1H-pyrazole-5-carboxylic acid], for which the EC50 entry is given as “C-”.

Staying with this test, now noted: BJAB cell proliferation; read-out: EC50.
On to `Cc1nn(-c2nc(-c3ccc(Cl)c(Cl)c3)c(SC(C)C)s2)c(CO)c1-c1ccccc1` [Compound A88, (1-(4-(3,4-dichlorophenyl)-5-(isopropylthio)thiazol-2-yl)-3-methyl-4-phenyl-1H-pyrazol-5-yl)MeOH], for which the EC50 is greater than 25 µM.

As for `Cc1nn(-c2nc(-c3ccc(Cl)c(Cl)c3)c(SC(C)C)s2)c(C(=O)O)c1Cc1ccccc1NS(=O)(=O)N(C)C` [Compound A122, 1-(4-(3,4-dichlorophenyl)-5-(isopropylthio)thiazol-2-yl)-4-(2-(N,N-dimethylsulfamoylamino)benzyl)-3-methyl-1H-pyrazole-5-carboxylic acid], the EC50 fell in the range of 10 to 25 µM.

Still in this test, the particulars now being: Homo sapiens; BJAB cell proliferation; read-out: EC50.
With `COc1cc(Cl)cc(-c2c(C)nn(-c3nc(-c4ccc(C(F)(F)F)cc4)c(SC(C)C)s3)c2C(=O)O)c1` [Compound A222, 4-(3-chloro-5-methoxyphenyl)-1-(5-(isopropylthio)-4-(4-(trifluoromethyl)phenyl)thiazol-2-yl)-3-methyl-1H-pyrazole-5-carboxylic acid], the EC50 was less than 1 µM.

Take `Cc1nn(-c2nc(-c3ccc(OC(F)(F)F)cc3)c(SC(C)C)s2)c(C(=O)O)c1-c1cccc(F)c1` [Compound A223, 4-(3-fluorophenyl)-1-(5-(isopropylthio)-4-(4-(trifluoromethoxy)phenyl)thiazol-2-yl)-3-methyl-1H-pyrazole-5-carboxylic acid]: the EC50 was in the range of 1 to 5 µM.
